Several values for one entry are separate records, joined by “and”; a condition that tells them apart may be missing. Identical values can stand only once. Inconclusive results and toxic doses are left out. Peptide text beside a SMILES is read from it. * marks the point of attachment. Bn = c1ccc(C*)cc1

The subject of this assay is BDF1 mice, B16 melanoma ip, median survival T/C. The experiment in a line: NCI In Vivo Anticancer Drug Screen. Data for tumor model B16 Melanoma (intraperitoneal) in B6D2F1 (BDF1) mice. The conditions noted are these: endpoint: median survival time, higher = longer survival. An outline of the steps: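 Survival or tumor size is measured after treatment of tumor-bearing mice and normalised to the vehicle-treated control group.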

The mark [1] stands for this setting: dose: 12.5 mg/kg/injection, schedule: Q01DX009 (ip), vehicle: Klucel (hydroxypropylcellulose) (HPC).
Where [2] appears, read: dose: 25.0 mg/kg/injection, schedule: Q01DX009 (ip), vehicle: Klucel (hydroxypropylcellulose) (HPC).
Setting [3] is: dose: 50.0 mg/kg/injection, schedule: Q01DX009 (ip), vehicle: Klucel (hydroxypropylcellulose) (HPC).
Setting [4] is: dose: 100.0 mg/kg/injection, schedule: Q01DX009 (ip), vehicle: Klucel (hydroxypropylcellulose) (HPC).
The mark [5] stands for this setting: dose: 200.0 mg/kg/injection, schedule: Q01DX009 (ip), vehicle: Klucel (hydroxypropylcellulose) (HPC).
The mark [6] stands for this setting: dose: 400.0 mg/kg/injection, schedule: Q01DX009 (ip), vehicle: Klucel (hydroxypropylcellulose) (HPC).

Consider `CC1(C)N=C(N)N=C(N)N1c1ccc(Cl)cc1Cl`, for which the T/C was 108 % of control under setting [1], 111 % of control under setting [2] and 123 % of control under setting [3].
As for `Cc1ccc(C(=O)/C(=C/c2ccccc2)c2ccccc2)cc1`, the T/C is 113 % of control (dose: 100.0 mg/kg/injection, schedule: Q04DX003 (ip), vehicle: Klucel (hydroxypropylcellulose) (HPC)); 113 % of control (dose: 200.0 mg/kg/injection, schedule: Q04DX003 (ip), vehicle: Klucel (hydroxypropylcellulose) (HPC)); 104 % of control (dose: 400.0 mg/kg/injection, schedule: Q04DX003 (ip), vehicle: Klucel (hydroxypropylcellulose) (HPC)).
Turning to `CC1OC(C)(C)OC1C(=O)O` (configuration not stated), the T/C reads like this: (dose: 6.25 mg/kg/injection, schedule: Q01DX009 (ip), vehicle: water) 96 % of control; (dose: 12.5 mg/kg/injection, schedule: Q01DX009 (ip), vehicle: water) 119 % of control; (dose: 25.0 mg/kg/injection, schedule: Q01DX009 (ip), vehicle: water) 104 % of control; (dose: 50.0 mg/kg/injection, schedule: Q01DX009 (ip), vehicle: water) 105 % of control.
`Cc1nn(CCO)c(C)c1N=[N+]([O-])c1c(C)nn(CCO)c1C`: under “dose: 15.0 mg/kg/injection, schedule: Q01DX011 (ip), vehicle: saline with Tween-80”, the T/C is 88 % of control.
For the molecule `CC(=O)NCC1(c2ccccc2)CCN(CCCC(=O)c2ccc(F)cc2)CC1`, the T/C is 93 % of control under setting [3] and 106 % of control under setting [4].
`CCCC1OC(/C=C/c2ccccc2)OCC1CC` (configuration not stated): the T/C is, setting by setting: (dose: 100.0 mg/kg/injection, schedule: Q01DX009 (ip), vehicle: saline with Tween-80) 110 % of control; (dose: 200.0 mg/kg/injection, schedule: Q01DX009 (ip), vehicle: saline with Tween-80) 110 % of control; (dose: 400.0 mg/kg/injection, schedule: Q01DX009 (ip), vehicle: saline with Tween-80) 98 % of control.
With `C[C@H]1CCC/C=C/[C@@H]2C[C@H](O)C[C@H]2[C@H](O)/C=C/C(=O)O1`, the T/C reads like this: (dose: 2.5 mg/kg/injection, schedule: Q01DX009 (ip), vehicle: Klucel (hydroxypropylcellulose) (HPC)) 116 % of control; (dose: 5.0 mg/kg/injection, schedule: Q01DX009 (ip), vehicle: Klucel (hydroxypropylcellulose) (HPC)) 104 % of control; (dose: 10.0 mg/kg/injection, schedule: Q01DX009 (ip), vehicle: Klucel (hydroxypropylcellulose) (HPC)) 103 % of control.
For the molecule `CN1CCN(c2ccc(Cl)cc2)CC1`, the T/C under setting [2] was 100 % of control and the T/C under setting [3] was 100 % of control.
For `O=NN(CCCl)C(=O)NC1CCCCC1`, the T/C runs as follows: (dose: 4.0 mg/kg/injection, schedule: Q01DX001 (ip), vehicle: Klucel (hydroxypropylcellulose) (HPC)) 102 % of control and 121 % of control; (dose: 4.0 mg/kg/injection, schedule: Q01DX001 (ip), vehicle: saline) 107 % of control; (dose: 7.5 mg/kg/injection, schedule: Q01DX001 (ip), vehicle: other) 107 % of control; (dose: 8.0 mg/kg/injection, schedule: Q01DX001 (ip), vehicle: Klucel (hydroxypropylcellulose) (HPC)) 102 % of control; (dose: 12.5 mg/kg/injection, schedule: Q01DX010 (ip), vehicle: saline) 115 % of control; (dose: 25.0 mg/kg/injection, schedule: Q01DX010 (ip), vehicle: saline) 110 % of control. Further, the T/C was 198 % of control (dose: 30.0 mg/kg/injection, schedule: Q01DX001 (ip), vehicle: other); 182 % of control and 312 % of control (dose: 32.0 mg/kg/injection, schedule: Q01DX001 (ip), vehicle: Klucel (hydroxypropylcellulose) (HPC)); 113 % of control (dose: 50.0 mg/kg/injection, schedule: Q01DX010 (ip), vehicle: saline); 102 % of control (dose: 100.0 mg/kg/injection, schedule: Q01DX010 (ip), vehicle: saline).
Take `Nc1ccc(OCc2ccccc2)cc1`: the T/C (dose: 25.0 mg/kg/injection, schedule: Q01DX009 (ip), vehicle: saline with Tween-80) is 109 % of control.
Take `CC(=O)OC(C)(C)/C=C/C(=O)[C@](C)(O)[C@H]1[C@H](O)C[C@@]2(C)[C@@H]3CC=C4[C@@H](C=C(O)C(=O)C4(C)C)[C@]3(C)C(=O)C[C@]12C`: the T/C was 90 % of control (dose: 0.25 mg/kg/injection, schedule: Q01DX009 (ip), vehicle: saline with Tween-80); 109 % of control (dose: 0.5 mg/kg/injection, schedule: Q01DX009 (ip), vehicle: saline with Tween-80); 102 % of control (dose: 1.0 mg/kg/injection, schedule: Q01DX009 (ip), vehicle: saline with Tween-80); 93 % of control (dose: 2.0 mg/kg/injection, schedule: Q01DX009 (ip), vehicle: saline with Tween-80); 95 % of control (dose: 4.0 mg/kg/injection, schedule: Q01DX009 (ip), vehicle: saline with Tween-80).
With `CCC1CN2C(=N1)c1ccccc1-c1cc(Cl)ccc12` (configuration not stated), the T/C (dose: 6.25 mg/kg/injection, schedule: Q01DX009 (ip), vehicle: suspension in saline) was 95 % of control; the T/C (dose: 10.0 mg/kg/injection, schedule: Q01DX009 (ip), vehicle: saline) was 94 % of control; the T/C (dose: 12.5 mg/kg/injection, schedule: Q01DX009 (ip), vehicle: suspension in saline) was 109 % of control; the T/C (dose: 20.0 mg/kg/injection, schedule: Q01DX009 (ip), vehicle: saline) is 118 % of control; the T/C (dose: 40.0 mg/kg/injection, schedule: Q01DX009 (ip), vehicle: saline) was 150 % of control; the T/C (dose: 50.0 mg/kg/injection, schedule: Q01DX009 (ip), vehicle: suspension in saline) is 157 % of control.
In the case of `CCOC(=O)c1c(C)[nH]c2c(-c3ccccc3)c3cc(Cl)ccc3nc12`, the T/C under setting [3] is 100 % of control, the T/C under setting [4] was 104 % of control, the T/C under setting [5] was 94 % of control and the T/C under setting [6] is 94 % of control.
In the case of `Cc1cn(C2CC3[O][Sn]([c]4ccccc4)([c]4ccccc4)[O]CC3O2)c(=O)[nH]c1=O` (configuration not stated), the T/C (dose: 6.25 mg/kg/injection, schedule: Q01DX009 (ip), vehicle: saline) is 91 % of control; the T/C (dose: 12.5 mg/kg/injection, schedule: Q01DX009 (ip), vehicle: saline) was 93 % of control and 117 % of control; the T/C (dose: 25.0 mg/kg/injection, schedule: Q01DX009 (ip), vehicle: saline) is 94 % of control and 124 % of control; the T/C (dose: 50.0 mg/kg/injection, schedule: Q01DX009 (ip), vehicle: saline) was 98 % of control.
Turning to `COC(=O)C(CC(C)C)NC(=O)C(N)Cc1ccc(OCc2ccccc2)cc1` (configuration not stated) (H-Tyr(Bn)-Leu-OMe; configuration not given here), the T/C by setting is: under setting [1], 110 % of control; under setting [2], 96 % of control.
As to `COc1cccc2c1C(=O)c1c(O)c3c(c(O)c1C2=O)C[C@@](O)(C(=O)CO)C[C@@H]3OC1CC([N+](C)(C)C)C(O)C(C)O1` (some centres not stated), the T/C by setting is: (dose: 4.32 mg/kg/injection, schedule: Q04DX003 (ip), vehicle: water) 108 % of control and 110 % of control; (dose: 6.48 mg/kg/injection, schedule: Q01DX001 (ip), vehicle: water) 107 % of control and 119 % of control; (dose: 7.2 mg/kg/injection, schedule: Q04DX003 (ip), vehicle: water) 116 % of control and 119 % of control; (dose: 10.8 mg/kg/injection, schedule: Q01DX001 (ip), vehicle: water) 103 % of control and 123 % of control; (dose: 12.0 mg/kg/injection, schedule: Q04DX003 (ip), vehicle: water) 108 % of control and 112 % of control; (dose: 18.0 mg/kg/injection, schedule: Q01DX001 (ip), vehicle: water) 105 % of control. Besides, the T/C runs as follows: (dose: 20.0 mg/kg/injection, schedule: Q04DX003 (ip), vehicle: water) 107 % of control; (dose: 30.0 mg/kg/injection, schedule: Q01DX001 (ip), vehicle: water) 102 % of control and 113 % of control.
Take `CSc1cc(=O)n2c3ccccc3c3ccnc1c32`: the T/C was 104 % of control (dose: 0.63 mg/kg/injection, schedule: Q01DX009 (ip), vehicle: saline with Tween-80); 110 % of control (dose: 1.25 mg/kg/injection, schedule: Q01DX009 (ip), vehicle: saline with Tween-80); 101 % of control (dose: 2.5 mg/kg/injection, schedule: Q01DX009 (ip), vehicle: saline with Tween-80); 108 % of control (dose: 5.0 mg/kg/injection, schedule: Q01DX009 (ip), vehicle: saline with Tween-80).
As to `CCOC(=O)C[Si](C)(C)C`, the T/C is, setting by setting: under setting [2], 102 % of control; under setting [3], 108 % of control; under setting [4], 86 % of control; under setting [5], 107 % of control; under setting [6], 97 % of control.
Regarding `CCOC(=O)C(Cl)CCl` (configuration not stated), the T/C by setting is: under setting [3], 100 % of control; under setting [4], 100 % of control.

Values taken from PubChem BioAssay AID192 (DTP/NCI, 2004).
